The values that follow come from patent publication US20230339939A1 (Bayer Aktiengesellschaft, priority 2020, published 2023).

pIC50: −log10 of the molar value.

Assay type in all cases: biochemical
Assay [1] deals with T1, CSNK1A1 (Homo sapiens (Human), UniProt P48729). The assay can be described thus: CSNK1A1 Assay 1 (ADP-Glo, 1 μM ATP, substrate Btn-Ahx-[…]). Particulars: median, comparison compounds of WO 2016/120196 (Table 4), read-out: CSNK1A1 Assay 1 IC50 [mol/l] (median). As to the method: (§1) CSNK1A1-inhibitory activity of compounds of the present invention in presence of 1 μM adenosine-tri-phosphate (ATP) was quantified employing the CSNK1A1 assay as described in the following paragraphs. In essence, the enzyme activity is measured by quantification of the adenosine-di-phosphate (ADP), which is generated as a co-product of the enzyme reaction, via the “ADP-Glo™ Kinase Assay” kit from the company Promega. This detection system works as follows: In a first step the ATP not consumed in the kinase reaction is quantitatively converted to cAMP employing an adenylate cyclase (“ADP-Glo-reagent”), then the adenylate cyclase is stopped and the ADP generated in the kinase reaction converted to ATP which generates in a luciferase-based reaction a glow-luminescence signal (“Kinase Detection Reagent”).
T1 sequence (P48729 whole entry): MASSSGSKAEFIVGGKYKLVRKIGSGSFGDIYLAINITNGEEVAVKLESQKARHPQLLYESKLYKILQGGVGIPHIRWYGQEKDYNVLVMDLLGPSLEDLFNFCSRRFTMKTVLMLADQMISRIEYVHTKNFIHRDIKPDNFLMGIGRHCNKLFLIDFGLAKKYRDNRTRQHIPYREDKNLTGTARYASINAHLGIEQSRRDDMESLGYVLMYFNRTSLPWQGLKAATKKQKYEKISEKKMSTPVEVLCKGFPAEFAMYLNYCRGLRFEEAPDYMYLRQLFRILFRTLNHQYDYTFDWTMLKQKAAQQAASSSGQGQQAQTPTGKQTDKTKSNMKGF
Recombinant fusion protein of N-terminal Glutathion-S-Transferase (GST) and full-length human CSNK1A1, expressed by baculovirus infected insect cells and purified via Glutathion affinity chromatography, was purchased from Life Technologies (product no. PV4174) and used as enzyme. As substrate for the kinase reaction the biotinylated peptide Btn-Ahx-[…] (C-terminus in amide form) was used which can be purchased e.g. from the company Biosyntan (Berlin-Buch, Germany). […]

The target in assay [2] is wild-type Epidermal Growth Factor Receptor (EGFR) (Homo sapiens (Human), UniProt P00533). The assay can be described thus: WT-EGFR Kinase Assay (TR-FRET, 2 mM ATP). The following applies: read-out: EGFR Wildtype-2 mM ATP IC50 [mol/l] (median), comparison compounds of WO 2016/120196 (Table 4). The source says:
Inhibitory activity of compounds of the present invention against wild-type Epidermal Growth Factor Receptor (EGFR) was quantified employing the TR-FRET based EGFR assay as described in the following paragraphs.
Recombinant fusion protein of N-terminal Glutathion-S-Transferase (GST) and a fragment of human EGFR (amino acids R669 to A1210), expressed in Sf9 insect cells and purified via affinity chromatography using Glutathion Sepharose as described above, was used as kinase. As substrate for the kinase reaction the biotinylated peptide biotin-Ahx-[…] (C-terminus in amide form) was used which can be purchased e.g. form the company Biosynthan GmbH (Berlin-Buch, Germany).
For the assay 50 nl of a 100 fold concentrated solution of the test compound in DMSO was pipetted into either a black low volume 384 well microtiter plate or a black 1536 well microtiter plate (both Greiner Bio-One, Frickenhausen, Germany), 2 μL of a solution of EGFR in aqueous assay buffer [50 mM Hepes pH 7.0, 10 mM MgCl2, 1 mM dithiothreitol, 0.5 mM EGTA, 0.3 mM activated sodium ortho-vanadate, 0.005% (w/v) bovine serum albumin, 0.005% (v/v) Tween-20] were added and the mixture was incubated for 15 min at 22° C. to allow pre-binding of the test compounds to the enzyme before the start of the kinase reaction. […] The concentration of EGFR was adjusted depending of the activity of the enzyme lot and was chosen appropriate to have the assay in the linear range, typical concentration was 7.6 pg/μL. The reaction was stopped by the addition of 3 μL of a solution of HTRF detection reagents (83.3 nM streptavidine-XL665 [Cisbio Bioassays, Codolet, France] and 1.67 nM PT66-Tb-Cryptate, a terbium-cryptate labelled anti-phospho-tyrosine antibody from Cisbio Bioassays [instead of the PT66-Tb-cryptate PT66-Eu-Chelate from Perkin Elmer can also be used]) in an aqueous EDTA-solution (133.3 mM EDTA, 0.2% (w/v) bovine serum albumin in 50 mM HEPES pH 7.5).
The resulting mixture was incubated 1 h at 22° C. to allow the binding of the biotinylated phosphorylated peptide to the streptavidine-XL665 and the PT66-Tb-Cryptate. Subsequently the amount of phosphorylated substrate was evaluated by measurement of the resonance energy transfer from the PT66-Tb-Cryptate to the streptavidine-XL665. Therefore, the fluorescence emissions at 620 nm and 665 nm after excitation at 337 nm were measured in a HTRF reader, e.g. a Pherastar (BMG Labtechnologies, Offenburg, Germany) or a Viewlux (Perkin-Elmer). The ratio of the emissions at 665 nm and at 622 nm was taken as the measure for the amount of phosphorylated substrate.

For assay [3], the target named is T1, CSNK1A1. Briefly: CSNK1A1 Assay 2 (ADP-Glo, 1 μM ATP, substrate biotin-Ahx-KRRRAL-pS-VASLPGL). Particulars: median, read-out: CSNK1A1 Assay 2 IC50 [mol/l] (median). As to the method:
as §1
(§2) Recombinant fusion protein of N-terminal Glutathion-S-Transferase (GST) and full-length human CSNK1A1, expressed by baculovirus infected insect cells and purified via Glutathion affinity chromatography, was purchased from Life Technologies (product no. PV4174) and used as enzyme. As substrate for the kinase reaction the biotinylated peptide biotin-Ahx-KRRRAL-pS-VASLPGL (C-terminus in amide form) was used which can be purchased e.g. from the company Biosyntan (Berlin-Buch, Germany).
For the assay 50 nl of a 100 fold concentrated solution of the test compound in DMSO was pipetted into a white 1536-well microtiter plate (Greiner Bio-One, Frickenhausen, Germany), 2 μL of a solution of CSNK1A1 in aqueous assay buffer [50 mM HEPES pH 7.5, 10% (v/v) glycerol, 10 mM MgCl2, 50 mM NaCl, 1 mM dithiothreitol, 0.01% (w/v) bovine serum albumin, 0.01% (v/v) Triton X-100] were added and the mixture was incubated for 15 min at 22° C. to allow pre-binding of the test compounds to the enzyme before the start of the kinase reaction. […] The concentration of CSNK1A1 was adjusted depending of the activity of the enzyme lot and was chosen appropriate to have the assay in the linear range, a typical concentrations are about 0.0375 ng/μL. The reaction was stopped by the addition of 2.5 μL of “ADP-Glo-reagent” (1:1.5 fold diluted with water) and the resulting mixture was incubated at 22° C. for 1 h to convert the ATP not consumed in the kinase reaction completely […]. Subsequently 2.5 μL of the “kinase detection reagent” (1.2 fold more concentrated than recommended by the producer) were added, the resulting mixture was incubated at 22° C. for 1 h and then the luminescence measured with a suitable measurement instrument (e.g. Viewlux™ from Perkin-Elmer). The amount of emitted light was taken as a measure for the amount of ADP generated and thereby for the activity of the CSNK1A1.

Assay [4] addresses T1, CSNK1A1. The assay can be described thus: CSNK1A1 High ATP Assay (ADP-Glo, 1 mM ATP). The following applies: median, read-out: CSNK1A1 high ATP assay IC50 [mol/l] (median). As to the method:
CSNK1A1-inhibitory activity of compounds of the present invention in presence of 1 mM adenosine-tri-phosphate (ATP) was quantified employing the CSNK1A1-high-ATP-assay as described in the following paragraphs. In essence, the enzyme activity is measured by quantification of the adenosine-di-phosphate (ADP), which is generated as a co-product of the enzyme reaction, via the “ADP-Glo™ Kinase Assay” kit from the company Promega. This detection system works as follows: In a first step the ATP not consumed in the kinase reaction is quantitatively converted to cAMP employing an adenylate cyclase (“ADP-Glo-reagent”), then the adenylate cyclase is stopped and the ADP generated in the kinase reaction converted to ATP which generates in a luciferase-based reaction a glow-luminescence signal (“Kinase Detection Reagent”).
as §2
For the assay 50 nl of a 100 fold concentrated solution of the test compound in DMSO was pipetted into a white low volume 384-well microtiter plate (Greiner Bio-One, Frickenhausen, Germany), 2 μL of a solution of CSNK1A1 in aqueous assay buffer [50 mM HEPES pH 7.5, 10% (v/v) glycerol, 10 mM MgCl2, 50 mM NaCl, 1 mM dithiothreitol, 0.01% (w/v) bovine serum albumin, 0.01% (v/v) Triton X-100] were added and the mixture was incubated for 15 min at 22° C. to allow pre-binding of the test compounds to the enzyme before the start of the kinase reaction. […] The concentration of CSNK1A1 was adjusted depending of the activity of the enzyme lot and was chosen appropriate to have the assay in the linear range, a typical concentration is about 0.4 ng/μL. The reaction was stopped by the addition of 2.5 μL of “ADP-Glo-reagent” (1:1.5 fold diluted with water) and the resulting mixture was incubated at 22° C. for 1 h to convert the ATP not consumed in the kinase reaction completely […]. Subsequently 2.5 μL of the “kinase detection reagent” (1.2 fold more concentrated than recommended by the producer) were added, the resulting mixture was incubated at 22° C. for 1 h and then the luminescence measured with a suitable measurement instrument (e.g. Viewlux™ from Perkin-Elmer). The amount of emitted light was taken as a measure for the amount of ADP generated and thereby for the activity of the CSNK1A1.

A further assay concerns the target CSNK1D (Homo sapiens (Human), UniProt P48730). Briefly: CSNK1D Assay (ADP-Glo, 1 μM ATP). Particulars: median, read-out: CSNK1D IC50 [mol/l] (median). How it is done:
CSNK1D-inhibitory activity of compounds of the present invention in presence of 1 μM adenosine-tri-phosphate (ATP) was quantified employing the CSNK1 D assay as described in the following paragraphs. In essence, the enzyme activity is measured by quantification of the adenosine-di-phosphate (ADP), which is generated as a co-product of the enzyme reaction, via the “ADP-Glo™ Kinase Assay” kit from the company Promega. This detection system works as follows: In a first step the ATP not consumed in the kinase reaction is quantitatively converted to cAMP employing an adenylate cyclase (“ADP-Glo-reagent”), then the adenylate cyclase is stopped and the ADP generated in the kinase reaction converted to ATP which generates in a luciferase-based reaction a glow-luminescence signal (“Kinase Detection Reagent”).
Recombinant fusion protein of N-terminal Glutathion-S-Transferase (GST) and full-length human CSNK1D, expressed by baculovirus infected insect cells and purified via Glutathion affinity chromatography, was purchased from Life Technologies (product no. PV3665) and used as enzyme. As substrate for the kinase reaction the biotinylated peptide Btn-Ahx-[…] (C-terminus in amide form) was used which can be purchased e.g. from the company Biosyntan (Berlin-Buch, Germany).
For the assay 50 nl of a 100 fold concentrated solution of the test compound in DMSO was pipetted into a white 1536-well microtiter plate (Greiner Bio-One, Frickenhausen, Germany), 2 μL of a solution of CSNK1D in aqueous assay buffer [50 mM HEPES pH 7.5, 10% (v/v) glycerol, 10 mM MgCl2, 50 mM NaCl, 1 mM dithiothreitol, 0.01% (w/v) bovine serum albumin, 0.01% (v/v) Triton X-100] were added and the mixture was incubated for 15 min at 22° C. to allow pre-binding of the test compounds to the enzyme before the start of the kinase reaction. […] The concentration of CSNK1D was adjusted depending of the activity of the enzyme lot and was chosen appropriate to have the assay in the linear range, a typical concentration is about 0.5 ng/μL. The reaction was stopped by the addition of 2.5 μL of “ADP-Glo-reagent” (1:1.5 fold diluted with water) and the resulting mixture was incubated at 22° C. for 1 h to convert the ATP not consumed in the kinase reaction completely […]. Subsequently 2.5 μL of the “kinase detection reagent” (1.2 fold more concentrated than recommended by the producer) were added, the resulting mixture was incubated at 22° C. for 1 h and then the luminescence measured with a suitable measurement instrument (e.g. Viewlux™ from Perkin-Elmer). The amount of emitted light was taken as a measure for the amount of ADP generated and thereby for the activity of the CSNK1D.

Sequence of CSNK1D (P48730 whole entry): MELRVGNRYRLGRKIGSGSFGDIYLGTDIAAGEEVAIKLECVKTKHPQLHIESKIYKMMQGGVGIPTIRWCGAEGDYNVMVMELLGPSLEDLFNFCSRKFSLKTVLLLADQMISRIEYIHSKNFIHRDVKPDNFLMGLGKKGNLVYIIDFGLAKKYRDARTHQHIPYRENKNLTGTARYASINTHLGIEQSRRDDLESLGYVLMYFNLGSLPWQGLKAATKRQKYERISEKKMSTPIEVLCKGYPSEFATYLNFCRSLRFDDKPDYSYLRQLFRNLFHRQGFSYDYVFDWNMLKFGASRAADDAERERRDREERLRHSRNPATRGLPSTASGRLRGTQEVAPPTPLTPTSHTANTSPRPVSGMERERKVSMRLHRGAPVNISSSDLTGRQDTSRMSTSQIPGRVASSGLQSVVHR

On to “2-(4-fluorophenyl)-N-{4-[7-(2-oxopyrrolidin-1-yl)-3-(pyridin-2-yl)-1H-pyrrolo[3,2-b]pyridin-2-yl]pyridin-2-yl}acetamide [Example 40]”, for which the pIC50 at CSNK1A1 [1] is 7.62; in assay [2], 7.07.

As for `O=C(Cc1ccc(F)cc1)Nc1cc(-c2[nH]c3ccc(F)nc3c2-c2ccc(F)cn2)ccn1` [Example 50, N-{4-[5-fluoro-3-(5-fluoropyridin-2-yl)-1H-pyrrolo[3,2-b]pyridin-2-yl]pyridin-2-yl}-2-(4-fluorophenyl)acetamide], the pIC50 was 8.85 on CSNK1A1 [3], 7.38 at CSNK1A1 [4] and 8.50 at CSNK1D.
